Reference: US20250353820A1, “ANTIVIRAL PYRAZOLOPYRIDINONE COMPOUNDS” (Novartis AG, priority 2019, published 2025)
pIC50: −log10 of the molar value.

Molecular target: human HSV DNA polymerase UL30 (Human herpesvirus 1 (strain 17) (HHV-1) (Human herpes simplex virus 1), UniProt P04293)
Assay: biochemical
Settings: 625 pM HSV polymerase, 20 minutes at room temperature; read-out: HSV-polymerase Biochemical IC50

`Cn1nc(C(=O)NCc2ccc(C#N)c(F)c2)c2c1C(=O)N(CC1(S(C)(=O)=O)CC1)CC2` [Example 23, N-(4-Cyano-3-fluorobenzyl)-1-methyl-6-((1-(methylsulfonyl)cyclopropyl)methyl)-7-oxo-4,5,6,7-tetrahydro-1H-pyrazolo[3,4-c]pyridine-3-carboxamide] showed a pIC50 of 6.46.
`Cn1nc(C(=O)OCc2ccc(C#N)cc2)c2c1C(=O)N(CC1(S(=O)(=O)C3CC3)CC1)CC2` [Example 24, 4-cyanobenzyl 6-((1-(cyclopropylsulfonyl)cyclopropyl)methyl)-1-methyl-7-oxo-4,5,6,7-tetrahydro-1H-pyrazolo[3,4-c]pyridine-3-carboxylate] gave a pIC50 of 6.33.
For `Cn1nc(C(=O)COc2ccc(C#N)cc2)c2c1C(=O)N(CC1(S(=O)(=O)C3CC3)CC1)CC2` [Example 25, 4-(2-(6-((1-(cyclopropylsulfonyl)cyclopropyl)methyl)-1-methyl-7-oxo-4,5,6,7-tetrahydro-1H-pyrazolo[3,4-c]pyridin-3-yl)-2-oxoethoxy)benzonitrile], the pIC50 was 7.28.
`Cn1nc(-c2nnc(Cc3ccc(C#N)cc3)o2)c2c1C(=O)N(CC1(S(=O)(=O)C3CC3)CC1)CC2` [Example 26, 4-((5-(6-((1-(Cyclopropylsulfonyl)cyclopropyl)methyl)-1-methyl-7-oxo-4,5,6,7-tetrahydro-1H-pyrazolo[3,4-c]pyridin-3-yl)-1,3,4-oxadiazol-2-yl)methyl)benzonitrile] was tested, and the pIC50 was 5.40.
`Cn1nc(-c2noc(Cc3ccc(C#N)cc3)n2)c2c1C(=O)N(CC1(S(=O)(=O)C3CC3)CC1)CC2` [Example 28, 4-((3-(6-((1-(Cyclopropylsulfonyl)cyclopropyl)methyl)-1-methyl-7-oxo-4,5,6,7-tetrahydro-1H-pyrazolo[3,4-c]pyridin-3-yl)-1,2,4-oxadiazol-5-yl)methyl)benzonitrile] was tested, and the pIC50 was 7.54.
Work on `Cn1nc(-c2nnn(Cc3ccc(C#N)cc3)n2)c2c1C(=O)N(CC1(S(=O)(=O)C3CC3)CC1)CC2` [Example 29, 4-((5-(6-((1-(Cyclopropylsulfonyl)cyclopropyl)methyl)-1-methyl-7-oxo-4,5,6,7-tetrahydro-1H-pyrazolo[3,4-c]pyridin-3-yl)-2H-tetrazol-2-yl)methyl)benzonitrile] yielded a pIC50 of 7.07.
Work on `Cn1nc(-c2nnnn2Cc2ccc(C#N)cc2)c2c1C(=O)N(CC1(S(=O)(=O)C3CC3)CC1)CC2` [Example 30, 4-((5-(6-((1-(cyclopropylsulfonyl)cyclopropyl)methyl)-1-methyl-7-oxo-4,5,6,7-tetrahydro-1H-pyrazolo[3,4-c]pyridin-3-yl)-1H-tetrazol-1-yl)methyl)benzonitrile] yielded a pIC50 of 5.20.
`Cn1nc(C2=NOC(c3ccc(C#N)cc3)C2)c2c1C(=O)N(CC1(S(=O)(=O)C3CC3)CC1)CC2` (centres unmarked) [Example 31, 4-(3-(6-((1-(Cyclopropylsulfonyl)cyclopropyl)methyl)-1-methyl-7-oxo-4,5,6,7-tetrahydro-1H-pyrazolo[3,4-c]pyridin-3-yl)-4,5-dihydroisoxazol-5-yl)benzonitrile] showed a pIC50 of 6.53.
In the case of `Cn1nc(-c2cc(Cc3ccc(C#N)cc3)on2)c2c1C(=O)N(CC1(S(=O)(=O)C3CC3)CC1)CC2` [Example 34, 4-((3-(6-((1-(Cyclopropylsulfonyl)cyclopropyl)methyl)-1-methyl-7-oxo-4,5,6,7-tetrahydro-1H-pyrazolo[3,4-c]pyridin-3-yl)isoxazol-5-yl)methyl)benzonitrile], the pIC50 was 8.00.
For `Cn1nc(-c2cn(Cc3ccc(C#N)cc3)nn2)c2c1C(=O)N(CC1(S(=O)(=O)C3CC3)CC1)CC2` [Example 35, 4-((4-(6-((1-(Cyclopropylsulfonyl)cyclopropyl)methyl)-1-methyl-7-oxo-4,5,6,7-tetrahydro-1H-pyrazolo[3,4-c]pyridin-3-yl)-1H-1,2,3-triazol-1-yl)methyl)benzonitrile], the pIC50 was 6.85.
Compound `Cn1nc(C(=O)NCc2ccc(Cl)cc2)c2c1C(=O)N(CC1(S(=O)(=O)C(F)F)CC1)CC2` [Example 39, N-(4-Chlorobenzyl)-6-((1-((difluoromethyl)sulfonyl)cyclopropyl)methyl)-1-methyl-7-oxo-4,5,6,7-tetrahydro-1H-pyrazolo[3,4-c]pyridine-3-carboxamide] has a pIC50 of 6.20.
`N#Cc1ccc(CNC(=O)c2nn(C3CC3)c3c2CCN(CC2(S(=O)(=O)C4CC4)CC2)C3=O)cc1` [Example 43, N-(4-Cyanobenzyl)-1-cyclopropyl-6-((1-(cyclopropylsulfonyl)cyclopropyl)methyl)-7-oxo-4,5,6,7-tetrahydro-1H-pyrazolo[3,4-c]pyridine-3-carboxamide] gave a pIC50 of 7.00.
Compound `O=C(NCc1ccc(Cl)cc1)c1n[nH]c2c1CCN(CC1(S(=O)(=O)C3CC3)CC1)C2=O` [Example 44, N-(4-Chlorobenzyl)-6-((1-(cyclopropylsulfonyl)cyclopropyl)methyl)-7-oxo-4,5,6,7-tetrahydro-1H-pyrazolo[3,4-c]pyridine-3-carboxamide] has a pIC50 of 6.86.
`CS(=O)(=O)C1(CN2CCc3c(nn4c3C(=O)N(Cc3ccc(C#N)cc3)CC4)C2=O)CC1` [Example 46, 4-((8-((1-(Methylsulfonyl)cyclopropyl)methyl)-1,7-dioxo-3,4,7,8,9,10-hexahydropyrido[3′,4′: 3,4]pyrazolo[1,5-a]pyrazin-2 (1H)-yl)methyl)benzonitrile] showed a pIC50 of 5.75.
In the case of `N#Cc1ccc(CNC(=O)c2nn(CC3(CO)CC3)c3c2CCN(CC2(S(=O)(=O)C4CC4)CC2)C3=O)cc1` [Example 47, N-(4-Cyanobenzyl)-6-((1-(cyclopropylsulfonyl)cyclopropyl)methyl)-1-((1-(hydroxymethyl)cyclopropyl)methyl)-7-oxo-4,5,6,7-tetrahydro-1H-pyrazolo[3,4-c]pyridine-3-carboxamide], the pIC50 was 7.23.
Work on `CS(=O)(=O)C1(CN2CCc3c(C(=O)NCc4ccc(C#N)cc4)nn(CC4(CO)CC4)c3C2=O)CC1` [Example 48, N-(4-Cyanobenzyl)-1-((1-(hydroxymethyl)cyclopropyl)methyl)-6-((1-(methylsulfonyl)cyclopropyl)methyl)-7-oxo-4,5,6,7-tetrahydro-1H-pyrazolo[3,4-c]pyridine-3-carboxamide] yielded a pIC50 of 6.10.
Work on `CC(C)(CO)S(=O)(=O)C1(CN2CCc3c(C(=O)NCc4ccc(C#N)cc4)n[nH]c3C2=O)CC1` [Example 49, N-(4-cyanobenzyl)-6-((1-((1-hydroxy-2-methylpropan-2-yl)sulfonyl)cyclopropyl)methyl)-7-oxo-4,5,6,7-tetrahydro-1H-pyrazolo[3,4-c]pyridine-3-carboxamide] yielded a pIC50 of 7.43.
With `Cn1nc(C(=O)NCc2ccc(Cl)cc2)c2c1C(=O)N(CC1(S(=O)(=O)C(C)(C)CO)CC1)CC2` [Example 50, N-(4-Chlorobenzyl)-6-((1-((1-hydroxy-2-methylpropan-2-yl)sulfonyl)cyclopropyl)methyl)-1-methyl-7-oxo-4,5,6,7-tetrahydro-1H-pyrazolo[3,4-c]pyridine-3-carboxamide] the pIC50 was 7.80.
`Cn1nc(C(=O)NCc2ccc(Cl)nc2)c2c1C(=O)N(CC1(S(=O)(=O)C(C)(C)CO)CC1)CC2` [Example 51, N-((6-Chloropyridin-3-yl)methyl)-6-((1-((1-hydroxy-2-methylpropan-2-yl)sulfonyl)cyclopropyl)methyl)-1-methyl-7-oxo-4,5,6,7-tetrahydro-1H-pyrazolo[3,4-c]pyridine-3-carboxamide] gave a pIC50 of 7.05.
`Cn1nc(C(=O)NCc2ccc(C#N)cc2)c2c1C(=O)N(CC1(S(=O)(=O)C(C)(C)CO)CC1)CC2` [Example 52, N-(4-Cyanobenzyl)-6-((1-((1-hydroxy-2-methylpropan-2-yl)sulfonyl)cyclopropyl)methyl)-1-methyl-7-oxo-4,5,6,7-tetrahydro-1H-pyrazolo[3,4-c]pyridine-3-carboxamide] gave a pIC50 of 7.72.
In the case of `Cn1nc(C(=O)NCc2ccc(F)cc2)c2c1C(=O)N(CC1(S(=O)(=O)C(C)(C)CO)CC1)CC2` [Example 53, N-(4-Fluorobenzyl)-6-((1-((1-hydroxy-2-methylpropan-2-yl)sulfonyl)cyclopropyl)methyl)-1-methyl-7-oxo-4,5,6,7-tetrahydro-1H-pyrazolo[3,4-c]pyridine-3-carboxamide], the pIC50 was 7.15.
With `C[C@H](NC(=O)c1nn(C)c2c1CCN(CC1(S(=O)(=O)C(C)(C)CO)CC1)C2=O)c1ccc(C#N)cc1` [Example 54, (S)-N-(1-(4-Cyanophenyl)ethyl)-6-((1-((1-hydroxy-2-methylpropan-2-yl)sulfonyl)cyclopropyl)methyl)-1-methyl-7-oxo-4,5,6,7-tetrahydro-1H-pyrazolo[3,4-c]pyridine-3-carboxamide] the pIC50 was 6.99.
For `C[C@@H](NC(=O)c1nn(C)c2c1CCN(CC1(S(=O)(=O)C(C)(C)CO)CC1)C2=O)c1ccc(C#N)cc1` [Example 55, (R)-N-(1-(4-Cyanophenyl)ethyl)-6-((1-((1-hydroxy-2-methylpropan-2-yl)sulfonyl)cyclopropyl)methyl)-1-methyl-7-oxo-4,5,6,7-tetrahydro-1H-pyrazolo[3,4-c]pyridine-3-carboxamide], the pIC50 was < 4.60.
`Cn1nc(C(=O)NCc2ccc(C#N)cc2)c2c1C(=O)N(CC1(S(=O)(=O)C(C)(C)COC(F)F)CC1)CC2` [Example 58, N-(4-Cyanobenzyl)-6-((1-((1-(difluoromethoxy)-2-methylpropan-2-yl)sulfonyl)cyclopropyl)methyl)-1-methyl-7-oxo-4,5,6,7-tetrahydro-1H-pyrazolo[3,4-c]pyridine-3-carboxamide] was tested, and the pIC50 was 7.62.
In the case of `Cn1nc(C(=O)NCc2ccc(C#N)cc2)c2c1C(=O)N(CC1(S(=O)(=O)C(C)(C)C#N)CC1)CC2` [Example 59, N-(4-Cyanobenzyl)-6-((1-((2-cyanopropan-2-yl)sulfonyl)cyclopropyl)methyl)-1-methyl-7-oxo-4,5,6,7-tetrahydro-1H-pyrazolo[3,4-c]pyridine-3-carboxamide], the pIC50 was 7.64.
`Cn1nc(C(=O)NCc2ccc(C#N)cc2)c2c1C(=O)N(CC1(S(=O)(=O)C(C)(C)CN3CC(F)C3)CC1)CC2` [Example 60, N-(4-Cyanobenzyl)-6-((1-((1-(3-fluoroazetidin-1-yl)-2-methylpropan-2-yl)sulfonyl)cyclopropyl)methyl)-1-methyl-7-oxo-4,5,6,7-tetrahydro-1H-pyrazolo[3,4-c]pyridine-3-carboxamide] showed a pIC50 of 7.35.
